Values quoted from earlier work, collected in patent US7011849B2, “Second release phase formulation” (Beecham Pharmaceuticals (Pte) Limited, priority 2000, dated 2006).

Conditions: in vivo

elimination half-life: about 1.3 hours
Compound: CC1(C)S[C@@H]2[C@H](NC(=O)[C@H](N)c3ccc(O)cc3)C(=O)N2[C@H]1C(=O)O [amoxicillin]
